# Experimental data reported in patent US7223783B2, “Indolinone derivatives” (Theravance, Inc., priority 2001, dated 2007).
# Where two headings read alike, the source gives them in different places.
# Experiments:
# [1] = tested on: receptor tyrosine kinases PDGFR, c-Kit, VEGFR and Flt-3; assay: One or more of the FLIPR, MTT and IP/Western whole cell assays; format: cell-based
# Description: In order to determine the IC50 of test compounds against the VEGFR in the FLIPR assay, HUVECs (Walkersville, Md.) were used. For the determination of IC50s against the PDGFR, a HEK cell line were used that expresses the human PDGFR. 40–50000 cells per well were plated in a 96 well plate. The cells were incubated for 3–4 hours to adhere to the plate. Subsequently, the cells were washed twice in FLIPR buffer (1×HBS, 2 mM CaCl, 10 mM HEPES, pH7.4, 2.5 mM Probenecid, 0.1% BSA). After the second wash 50 μL of the Ca^2+ sensitive dye FLUO-3 (FLUO-3 (AM) TEF Labs, 50 μg in 10 mL FLIPR buffer) was added to the remaining 50 μL buffer in each well. After loading the cells for one hour, the cells were washed twice and the test compounds were added in 50 μL as a 2× solution to the 50 μL of buffer in each well. The cells were incubated with the compounds for 30 minutes and then VEGF (40 ng/mL, BioSource International) for the VEGFR or PDGF (40 ng/mL, BioSource International) for the PDGFR was added. The change in fluorescence intensity was measured in a Fluorometric Image Plate Reader (FLIPR) (Molecular Devices).
# The inhibition of mutant Flt-3 ITD is expected to affect the proliferation and viability of AML cells with this mutation. […] The plate was incubated at 37 degrees Celsius for 24 hours and, then, the optical density of the wells was determined spectrophotometrically at 550 nm. […]
# [2] = biological target: T1, Flt-3 ITD (Homo sapiens, UniProt P36888, INS600HVDFREYEYD); assay: Proliferation and viability assay (MTT), cytotoxicity assay; format: cell-based; details: MV4-11 AML cells expressing Flt-3 ITD, 48 hours, highest concentration tested 10 μm
# T1 construct: MV4-11 cells express Flt-3 ITD; endogenous in cells; host or cells: MV4-11
# T1 sequence (P36888 with tags, fused parts or gaps INS600HVDFREYEYD): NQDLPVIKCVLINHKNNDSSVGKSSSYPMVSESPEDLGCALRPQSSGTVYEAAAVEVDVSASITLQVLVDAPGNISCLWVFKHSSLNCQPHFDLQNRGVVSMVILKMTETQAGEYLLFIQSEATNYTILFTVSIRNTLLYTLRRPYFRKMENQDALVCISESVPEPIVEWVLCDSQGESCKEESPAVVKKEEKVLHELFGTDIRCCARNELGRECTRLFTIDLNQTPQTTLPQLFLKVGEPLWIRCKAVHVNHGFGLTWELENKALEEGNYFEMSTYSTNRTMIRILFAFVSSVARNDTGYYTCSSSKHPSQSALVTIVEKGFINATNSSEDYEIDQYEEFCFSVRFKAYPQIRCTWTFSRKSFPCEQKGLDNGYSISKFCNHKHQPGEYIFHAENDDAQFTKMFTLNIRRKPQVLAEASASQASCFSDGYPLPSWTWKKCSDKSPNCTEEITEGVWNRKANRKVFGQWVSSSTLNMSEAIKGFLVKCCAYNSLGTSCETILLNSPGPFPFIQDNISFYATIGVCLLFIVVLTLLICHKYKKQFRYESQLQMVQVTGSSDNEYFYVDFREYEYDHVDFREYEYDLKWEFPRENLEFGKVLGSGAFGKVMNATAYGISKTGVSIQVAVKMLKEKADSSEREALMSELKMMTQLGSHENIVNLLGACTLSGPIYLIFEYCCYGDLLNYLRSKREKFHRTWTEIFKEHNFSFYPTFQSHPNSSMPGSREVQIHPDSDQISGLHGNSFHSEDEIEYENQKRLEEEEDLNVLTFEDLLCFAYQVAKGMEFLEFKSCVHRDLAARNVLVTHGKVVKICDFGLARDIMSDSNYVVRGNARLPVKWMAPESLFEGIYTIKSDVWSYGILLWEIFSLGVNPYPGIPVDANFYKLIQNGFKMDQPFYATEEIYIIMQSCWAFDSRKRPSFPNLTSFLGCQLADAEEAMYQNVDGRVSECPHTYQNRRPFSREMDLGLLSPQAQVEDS
# [3] = biological target: T2, PDGFR (Homo sapiens, UniProt P09619); assay: Immunoprecipitation/Western (IP/Western) receptor autophosphorylation; format: cell-based; set-up: expressed in transfected cells; host or cells: HEK PDGFR cell line; details: Immunoprecipitation/Western (IP) assay, HEK PDGFR cell line; highest concentration tested 1 μm
# Description: Immunoprecipitation/Western (IP/Western)
# The binding of growth factors to receptor tyrosine kinases like Flt-3 or PDGFR leads to the autophosphorylation of the receptors. The inhibition of autophosphorylation is the objective pursued with kinase inhibitors. By performing an IP/Western experiment the level of receptor autophosphorylation can be assessed directly.
# 5×10^6 cells (HEK PDGFR cell line for PDGFR, HEK c-Kit for c-Kit, and THP-1, HL-60 or MV4-11 for Flt-3) were incubated for 30 minutes in 2.5 mL of culture media with a defined concentration of test compound. In order to stimulate receptor autophosphorylation, growth factor (PDGF, SCF, or Flt-3 ligand respectively, 50 ng/mL, Biosource International, Camarillo, Calif.) was added for 5 minutes. The cells were then centrifuged and lysed in 500 μL lysis buffer (50 mM Tris pH 7.4, 1% NP-40, 150 mM NaCl, 1 mM EDTA, 1 mM Na3V04). The lysate is centrifuged and 10 μL of antibody against the respective receptor was added to the supernatant (anti-PDGFR (P20), anti-c-Kit (C-19), and anti-Flt-3 (S18), Santa Cruz Biotechnology, Inc.). The immunocomplexes were isolated with Protein G beads (Sigma, St. Louis, Mo.) and PAGE was performed. A Western Blot was done using an antibody against phospho-tyrosine residues (4G10, Upstate Biotechnology, Lake Placid, N.Y.). The intensity of the phospho-tyrosine signal corresponding to various drug concentrations provides a way to determine the IC50 of the test compound for the inhibition of autophosphorylation.
# [4] = biological target: T3, VEGFR (Homo sapiens, UniProt P35968); assay: Ca2+ release assay (FLIPR) in HUVECs; format: cell-based; details: VEGF 40 ng/mL, highest concentration tested 1 μm
# T3 construct: against the VEGFR in the FLIPR assay, HUVECs (Walkersville, Md.) were used; endogenous in cells; host or cells: HUVEC
# [5] = Pharmacokinetics in male Sprague Dawley rats; format: in vivo, rat
# Description: To evaluate pharmacokinetics, male Sprague Dawley rats (CD strain, Charles River Laboratories, Wilmington, Mass.) were dosed with test compounds via intravenous (IV) administration, at 1 mg/kg concentration, and oral (PO) administration, at 10 mg/kg concentration. Blood samples were collected from animals pre-dose, and at 2, 5, 15, and 30 minutes, and at 1, 2, 4, 6, 8, and 24 hours post-dose. Plasma concentrations were determined by liquid chromatography-mass spectrometry (LC-MS) (MDS SCIEX API 4000, Applied Biosystems, Foster City, Calif.). Standard pharmacokinetic parameters were assessed by non-compartmental methods using the WinNonlin Version 3.2 software package (Pharsight, Mountain View, Calif.). Oral bioavailability was determined as the ratio of the area under the curve (AUC) in the graph of plasma concentration versus time for PO administration to the corresponding quantity for IV administration.
# [6] = Solubility in water; format: physicochemical
# [7] = biological target: T2, PDGFR; assay: Ca2+ release assay (FLIPR) in HEK cell line expressing human PDGFR; format: cell-based; set-up: expressed in transfected cells; host or cells: HEK; details: HEK cells expressing human PDGFR, PDGF 40 ng/mL
# [8] = upon oral and intravenous administration; cited from earlier work
# [9] = prior art statement; cited from earlier work
# [10] = biological target: T4, Flt-3 (Homo sapiens, UniProt P36888); details: Abstract 497, O'Farrell et al., ASH 2001; cited from earlier work
# T4 sequence (P36888 27-993): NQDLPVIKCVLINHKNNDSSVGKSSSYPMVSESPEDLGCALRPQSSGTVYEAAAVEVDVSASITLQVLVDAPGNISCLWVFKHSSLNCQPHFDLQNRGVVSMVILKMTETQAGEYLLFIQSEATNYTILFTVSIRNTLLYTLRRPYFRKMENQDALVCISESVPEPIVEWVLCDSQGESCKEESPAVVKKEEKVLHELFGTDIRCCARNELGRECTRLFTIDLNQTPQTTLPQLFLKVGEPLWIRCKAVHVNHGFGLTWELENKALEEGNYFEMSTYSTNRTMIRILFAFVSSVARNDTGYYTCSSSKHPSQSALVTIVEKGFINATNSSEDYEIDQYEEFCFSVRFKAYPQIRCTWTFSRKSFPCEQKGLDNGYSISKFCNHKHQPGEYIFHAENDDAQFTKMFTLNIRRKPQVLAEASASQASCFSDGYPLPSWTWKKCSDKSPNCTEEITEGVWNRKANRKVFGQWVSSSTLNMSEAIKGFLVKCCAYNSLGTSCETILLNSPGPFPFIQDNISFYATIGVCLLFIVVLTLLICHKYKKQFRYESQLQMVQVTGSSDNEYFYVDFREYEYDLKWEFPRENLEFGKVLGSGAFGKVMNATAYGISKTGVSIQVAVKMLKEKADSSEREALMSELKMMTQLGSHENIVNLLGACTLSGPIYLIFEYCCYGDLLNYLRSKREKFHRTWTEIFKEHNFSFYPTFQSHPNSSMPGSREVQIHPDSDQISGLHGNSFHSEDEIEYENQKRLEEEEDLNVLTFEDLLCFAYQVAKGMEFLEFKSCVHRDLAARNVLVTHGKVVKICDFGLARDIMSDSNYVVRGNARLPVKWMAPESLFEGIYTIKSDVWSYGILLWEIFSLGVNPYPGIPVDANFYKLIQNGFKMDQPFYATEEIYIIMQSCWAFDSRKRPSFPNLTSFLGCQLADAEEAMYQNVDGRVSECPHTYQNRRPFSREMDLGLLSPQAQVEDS
# T3 sequence (P35968 20-1356): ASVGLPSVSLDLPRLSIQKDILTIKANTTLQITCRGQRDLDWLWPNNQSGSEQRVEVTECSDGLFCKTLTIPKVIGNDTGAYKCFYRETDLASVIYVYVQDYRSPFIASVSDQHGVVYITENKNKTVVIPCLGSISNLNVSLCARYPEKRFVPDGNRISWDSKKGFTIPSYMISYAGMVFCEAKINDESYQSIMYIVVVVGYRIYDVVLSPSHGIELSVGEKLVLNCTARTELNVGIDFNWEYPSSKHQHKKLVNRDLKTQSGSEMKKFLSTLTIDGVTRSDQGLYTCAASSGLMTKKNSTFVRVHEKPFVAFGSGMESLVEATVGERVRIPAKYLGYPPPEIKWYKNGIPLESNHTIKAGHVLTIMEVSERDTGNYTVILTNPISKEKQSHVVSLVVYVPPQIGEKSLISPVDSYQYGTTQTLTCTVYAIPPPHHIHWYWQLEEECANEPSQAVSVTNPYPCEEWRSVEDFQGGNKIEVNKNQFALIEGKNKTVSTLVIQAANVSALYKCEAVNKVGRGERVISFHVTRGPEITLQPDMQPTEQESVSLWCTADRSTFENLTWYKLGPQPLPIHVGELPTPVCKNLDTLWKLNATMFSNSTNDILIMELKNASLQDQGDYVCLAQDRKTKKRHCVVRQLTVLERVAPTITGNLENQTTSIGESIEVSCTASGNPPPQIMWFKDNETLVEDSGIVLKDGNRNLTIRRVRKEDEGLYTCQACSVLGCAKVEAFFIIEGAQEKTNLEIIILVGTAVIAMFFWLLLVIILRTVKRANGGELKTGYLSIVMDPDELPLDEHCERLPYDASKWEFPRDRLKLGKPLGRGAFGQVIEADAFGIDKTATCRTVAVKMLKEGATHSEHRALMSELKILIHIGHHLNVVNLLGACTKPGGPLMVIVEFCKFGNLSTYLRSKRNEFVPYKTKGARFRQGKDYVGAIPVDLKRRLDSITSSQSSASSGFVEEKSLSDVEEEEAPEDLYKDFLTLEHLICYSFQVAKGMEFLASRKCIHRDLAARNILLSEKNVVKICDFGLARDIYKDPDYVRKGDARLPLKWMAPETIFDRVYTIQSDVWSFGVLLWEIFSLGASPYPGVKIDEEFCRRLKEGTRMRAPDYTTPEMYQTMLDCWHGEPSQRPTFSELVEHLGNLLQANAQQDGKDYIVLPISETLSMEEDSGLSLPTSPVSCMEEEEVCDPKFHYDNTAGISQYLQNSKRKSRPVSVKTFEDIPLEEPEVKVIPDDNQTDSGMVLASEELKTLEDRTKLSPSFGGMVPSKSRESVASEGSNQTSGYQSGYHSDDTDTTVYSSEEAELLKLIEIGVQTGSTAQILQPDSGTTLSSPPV
# T2 sequence (P09619 33-1106): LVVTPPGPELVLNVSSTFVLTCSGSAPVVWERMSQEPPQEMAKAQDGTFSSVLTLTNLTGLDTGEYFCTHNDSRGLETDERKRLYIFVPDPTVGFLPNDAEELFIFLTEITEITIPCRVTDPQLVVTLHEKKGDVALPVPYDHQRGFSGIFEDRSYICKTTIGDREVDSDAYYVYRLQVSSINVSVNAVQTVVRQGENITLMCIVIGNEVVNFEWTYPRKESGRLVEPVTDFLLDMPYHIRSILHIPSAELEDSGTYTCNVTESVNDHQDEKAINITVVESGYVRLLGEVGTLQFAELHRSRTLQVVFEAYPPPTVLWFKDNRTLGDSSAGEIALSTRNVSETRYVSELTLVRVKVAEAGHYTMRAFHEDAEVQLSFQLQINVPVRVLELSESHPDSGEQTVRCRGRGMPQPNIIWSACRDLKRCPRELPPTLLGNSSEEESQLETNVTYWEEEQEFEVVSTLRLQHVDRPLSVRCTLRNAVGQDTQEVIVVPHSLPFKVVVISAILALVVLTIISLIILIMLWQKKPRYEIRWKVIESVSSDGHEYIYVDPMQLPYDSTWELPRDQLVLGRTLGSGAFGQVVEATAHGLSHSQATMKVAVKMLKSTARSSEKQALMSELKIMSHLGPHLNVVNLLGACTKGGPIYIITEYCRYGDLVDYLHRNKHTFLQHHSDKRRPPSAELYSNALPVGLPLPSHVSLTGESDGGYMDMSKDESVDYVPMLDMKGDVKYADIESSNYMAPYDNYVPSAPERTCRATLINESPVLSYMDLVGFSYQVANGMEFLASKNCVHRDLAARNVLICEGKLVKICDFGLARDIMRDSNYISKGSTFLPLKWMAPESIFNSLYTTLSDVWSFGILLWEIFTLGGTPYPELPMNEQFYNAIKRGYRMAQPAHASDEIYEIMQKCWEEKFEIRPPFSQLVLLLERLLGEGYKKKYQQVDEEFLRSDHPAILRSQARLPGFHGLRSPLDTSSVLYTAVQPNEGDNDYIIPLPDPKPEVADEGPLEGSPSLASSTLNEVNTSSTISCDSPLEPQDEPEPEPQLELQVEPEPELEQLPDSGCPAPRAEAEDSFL
IC50 [3] [µM],PDGFR IC50 [3],IC50 [4] [µM],VEGFR IC50 [4],"bioavailability ([5]; male, Sprague-Dawley, rat, plasma, oral, 10 mg/kg) [%]",Absorption on oral administration ([5]; oral administration),Solubility in water [6],IC50 [7] [µM],PDGFR IC50 [7],Compound,"Inhibition of one or more of PDGFR, c-Kit, VEGFR and Flt-3 [1]",EC50 [2] [µM],Flt-3 EC50 [2],bioavailability [8],Solubility in water [9],Ability to inhibit the receptor tyrosine kinase Flt-3 [10]
0.03,sub-micromolar activity,0.02,sub-micromolar activity,50.6,excellent absorption,high solubility in water,–,–,"Cc1[nH]c(C=C2C(=O)Nc3ccccc32)c(C)c1CCC(=O)N1CCNCC1.O=C(O)C(F)(F)F [Example 1, 3-[3,5-dimethyl-4-(3-oxo-3-piperazin-1-yl-propyl)-1H-pyrrol-2-ylmethylene]-1,3-dihydroindol-2-one, trifluoroacetate]",highly potent and selective inhibitor,0.24,sub-micromolar activity,–,–,–
–,–,0.03,sub-micromolar activity,–,–,–,0.09,sub-micromolar activity,"CCN1CCN(C(=O)CCc2c(C)[nH]c(C=C3C(=O)Nc4ccccc43)c2C)CC1.O=C(O)C(F)(F)F [Example 22, 3-[3,5-dimethyl-4-[3-oxo-3-(4-ethyl)piperazin-1-ylpropyl]-1H-pyrrol-2-ylmethylene]-1,3-dihydroindol-2-one, trifluoroacetate]",–,0.22,sub-micromolar activity,–,–,–
–,–,–,–,–,–,–,–,–,Cc1cc(C)c(/C=C2\C(=O)Nc3ccccc32)[nH]1 [SU5416],–,–,–,low bioavailability,poor solubility in water,–
–,No activity**^#,–,No activity**,–,–,–,–,–,"Cc1[nH]c(C=C2C(=O)Nc3ccccc32)c(C)c1CCC(=O)O [SU6668, 3-[2,4-dimethyl-5-(2-oxo-1,2-dihydroindol-3-ylidenemethyl)-1H-pyrrol-3-yl]propionic acid, reference compound]",–,–,No activity*,–,–,lack the ability
